One series concerns whole cell growth. The series can be described thus: Whole cell growth measurements, long term studies. The format is cell-based. An excerpt:
(§1) Synthetic cyanobacterin such as the racemic mixture prepared by Jong T. T. et al in J. Org.

For series [1], the system named is cyanobacterial spheroplast system. Kind of series: Activity in a cyanobacterial spheroplast system. Type of series: cell-based.
Excerpt: as §1

The next series concerns cell growth. Kind of series: Biological activity / cell growth of the anhydro analog. The format is cell-based. An excerpt:
The cyanobacterin used in this invention may be obtained from Scytonema hofmanni (UTEX 2349 University of Texas Collection, Austin, Tex.) cells. Cyanobacterin is a diaryl substituted gamma-ylidene, gamma-butyro lactone with a chlorine substituent on one of the aromatic rings. […] This compound results from dehydration of the parent compound: [drawing 1]
It has been postulated by the inventor that a hydrophilic constituent on the lactone ring is crucial to the activity of cyanobacterin and may be involved in protein binding.

For a further series, the system named is Avena fatua. Kind of series: Spray treatment of wild oats. Type of series: in vivo. As to the method:
(§2) 10 mg of cyanobacterin dissolved in lml. of ethyl ether was mixed with 0.1 ml of the Science "Sticker" of Science Products, Co., which contains about 77% Triton B-1956 brand surfactant. 10 ml of water was added and mixed. After mixing for about 30 minutes to allow the ether to evaporate, the composition was ready to apply to plants.
(§3) A variety of green plants were treated with a cyanobacterin solution prepared in accordance with Example I above. An atomizer was used to spray the plants with a fine spray. Before placing the fluid into an atomizer, the solution was measured and then remeasured after application on the plants.
(§4) A control solution of 0.1 ml of sticker-ether in 10 ml of distilled water was applied to the control plants. These plants were treated in the same manner as in the cyanobacterin application and measured in the same way. Plants were cut off at the soil line and dried for 16 hours at 110° C.
Avena fatua plants were grown at a rate of over 10 plants per pot. A total of 5 control pots were used and 5 cyanobacterin treated pots were utilized.
Three separate concentrations of cyanobacterin were utilized. In group 1 the plants were treated 3 days after germination with 0.44 milligrams of the cyanobacterin. […] A second group were treated with 0.6 milligrams of cyanobacterin two weeks after germination. […] The third group of plants were treated with 1.05 milligrams of cyanobacterin 7 days after germination.

A further series relates to Setaria viridis. The series can be described thus: Spray treatment of green foxtail. Type of series: in vivo. Particulars: for treated plant dry weight: fifteenth day. As to the method: as §2, §3, §4
Setaria viridis plants were grown at a rate of over 10 per pot. A total of 5 control pots were used and 5 cyanobacterin treated pots were utilized. Two concentrations of cyanobacterin were utilized. In the first group 0.5 milligrams of cyanobacterin was applied to plants 8 days after germination. The control plant dry weight on the fifteenth day after cutting was 365.8 milligrams and the cyanobacterin treated plant dry weight was 176.3 milligrams. A second group of plants was treated with 2.8 milligrams of cyanobacterin 7 days after germination.

The test system of the next series is Polygonium convolvulus. Kind of series: Spray treatment of wild buckwheat. The format is in vivo. Conditions: for treated plant dry weight: fifteenth day. As to the method: as §2, §3, §4
Polygonium convolvulus plants were raised at a rate of over 10 plants per pot. Five control pots were used and 5 pots were treated with the cyanobacterin containing compound of the invention.
The first plants treated were treated 2 days after germination with 0.29 milligrams of the cyanobacterin. The control plant dry weight at the fifteenth day was 92.4 milligrams and the cyanobacterin treated dry weight was 59.1 milligrams. The second group of plants were treated 4 days after germination with 0.5 milligrams of cyanobacterin.

Another series deals with photosystem II. Kind of series: Hill reaction / oxygen evolution in pea chloroplasts. The format is biochemical. An excerpt: It is theorized that cyanobacterin acts on green plants by specifically binding to some component of the photosynthetic electron transport system.
(§5) Cyanobacterin, when applied to the soil had no effect. […] Also, it may not be transported through the root vascular system. The Hill reaction is inhibited by cyanobacterin as shown by the use of photosynthetically active pea chloroplasts.

The test system of series [2] is Pisum sativum, var. Little Marvel. Kind of series: Spray treatment of pea. The format is in vivo. The procedure:
as §2, §3, §4
Pisum sativum, var. Little Marvel, plants were tested at a rate of 1 and 2 plants per pot. With one plant per pot, a total of nine control plants were used and 12 cyanobacterin treated plants were utilized. With 2 plants per pot, one control plant was utilized and 2 cyanobacterin treated plants were utilized. The plants were treated 8 and 6 days after germination respectively, with the cyanobacterin compound of Example I. The pots containing 1 plant per pot were treated with 1.5 milligrams and the pots containing 2 plants were treated with 0.6 milligrams of the cyanobacterin compound. The control plant dry weight of a single plant per pot plants after the fifteen days of growth was 363.8 milligrams and 194.9 milligrams for the cyanobacterin treated plant dry weight.

A further series can be described thus: Hydrophobicity. Type of series: physicochemical.
A further series has as its system Rumex crispus. Kind of series: Spray treatment of curled dock. The format is in vivo. Conditions: for treated plant dry weight: fifteenth day. The procedure: as §2, §3, §4
Rumex crispus was grown at a rate of 10 plants or more per pot. A total of 5 control pots were used and 5 pots were treated with the cyanobacterin containing compound of Example I. Seven days after germination the plants were treated with 1.45 milligrams of cyanobacterin. […] By the 9th day, half the plants were dead and half were chlorotic. […] The control plant dry weight at the fifteenth day was 453.3 milligrams and the cyanobacterin dry weight was 93.1 milligrams.
Curled dock plants were also treated with 0.5 milligrams of cyanobacterin. The plants were treated with the cyanobacterin compound 8 days after germination. On the 7th day after treatment, many of the plants were dead and others were chlorotic.

Series [3] relates to Lemna gibba, L.minor and Lemna 6746 (Duckweed). Kind of series: Use against aquatic plants (frond multiplication, toxicity). Type of series: in vivo. The procedure: The effect of cyanobacterin was initially tested on the aquatic angiosperms, Lemna gibba, L.minor and Lemna 6746 (Duckweed). Cyanobacterin stopped frond multiplication at a minimum dose of 0.5 μg per ml of growth medium (1.1 μM). The plants recovered after about 7-12 days. Presumably, this is due to degradation of the cyanobacterin over time which drops the dosage below the minimum. At a concentration of 1.0 μg/ml (2.3 μM), cyanobacterin is toxic to Lemna. The plants generally appear normal for 10-15 days after which the roots fall off and the leaves become chlorotic.

Series [4] concerns Zea Mays of the hybrid variety Goldencross Bantam. Kind of series: Spray treatment of sweet corn. Type of series: in vivo. Conditions: 1.0 milligrams, Example I composition. As to the method:
as §2, §3, §4
Zea Mays of the hybrid variety Goldencross Bantam was tested with one plant per pot. A total of nine control plants were used and 14 plants were treated with the cyanobacterin composition of Example I. The plants were treated once, 8 days after germination. After growing for a total of 15 days after treatment, the plants were cut off at the soil line and the dry weight was determined. A control plant dry weight was 227.4 milligrams and the cyanobacterin treated plant dry weight was 59.4 milligrams. The amount of cyanobacterin utilized was 1.0 milligrams.

A further series can be described thus: Application to the soil. The format is in vivo.
Excerpt: as §5

Series [5] is described as follows: Herbicidal effect, amount relative to plant dry weight. The format is in vivo. Conditions: by dry weight. An excerpt:
The composition may be formulated from high purity cyanobacterin or from crude extracts obtained from the blue-green algae since high purity is not required. […] Additionally, the composition may be formulated from a synthetic cyanobacterin, such as the racemic mixture described by T. T. Jong et al, "Total synthesis and X-ray structure determination of cyanobacterin", J. Org. Chem. 49:735-736(1984).

Structures are written as SMILES. Where “and” joins values, the source holds several entries; their conditions need not be identical. Identical values can stand only once.

As to `COc1ccc(/C=C2\OC(=O)C(Cc3cc(Cl)c4c(c3)OCO4)C2(O)C(C)C)cc1` (racemic) [Synthetic cyanobacterin], the figures for the “activity relative to cyanobacterin” value (in the series on whole cell growth; in [1]) were “the same activity” and “about half the activity of cyanobacterin”, respectively.
Take `COc1ccc(/C=C2\OC(=O)C(Cc3cc(Cl)c4c(c3)OCO4)=C2C(C)C)cc1` [anhydrocyanobacterin]: in the series with cell growth, the biological activity entry is recorded as “no biological activity” and the “effect on cell growth” value was “no effect on cell growth”.
With `COc1ccc(/C=C2\OC(=O)C(Cc3cc(Cl)c4c(c3)OCO4)C2(O)C(C)C)cc1` (stereo not drawn) [cyanobacterin], the “treated plant dry weight” value in the series on Avena fatua (0.44 milligrams, 3 days after germination, fifteen days after treatment, control 154.6 milligrams) is given as 115.5 milligrams; in the series with Avena fatua (0.6 milligrams, two weeks after germination, fifteen days after treatment, control 328.5 milligrams), 79.5 milligrams; with Avena fatua (1.05 milligrams, 7 days after germination, fifteenth day, control 489.6 milligrams) it was 155.8 milligrams; in the series on Setaria viridis (0.5 milligrams, 8 days after germination, control 365.8 milligrams), 176.3 milligrams; with Setaria viridis (2.8 milligrams, 7 days after germination, control 411.7 milligrams) it was 217.7 milligrams; in the series on Polygonium convolvulus (0.29 milligrams, 2 days after germination, control 92.4 milligrams) it was 59.1 milligrams. For the same compound, the “treated plant dry weight” value came out at 59.1 milligrams in the series on Polygonium convolvulus (0.5 milligrams, 4 days after germination, control 157.8 milligrams); 194.9 milligrams in series [2] (1 plant per pot, 1.5 milligrams, treated 8 days after germination, fifteen days of growth, control 363.8 milligrams); 101.4 milligrams in series [2] (2 plants per pot, 0.6 milligrams, treated 6 days after germination, control 169.8 milligrams); 239.1 milligrams in the series with Rumex crispus (0.5 milligrams, 8 days after germination, control 451.9 milligrams); 93.1 milligrams in the series on Rumex crispus (1.45 milligrams, seven days after germination, control 453.3 milligrams); 59.4 milligrams in series [4] (treated once 8 days after germination, 15 days after treatment, control 227.4 milligrams). Also, in the series on Avena fatua (0.44 to 1.05 milligrams), the “plant condition at the end of the experiment” value was “stressed but overall were still green and growing”. Also, in the series on Setaria viridis (0.5 or 2.8 milligrams), the “plant condition at approximately the 9th day after treatment” value is “approximately half of the plants had died”. For the same compound, the “plant condition by the 15th day” value in the series with Polygonium convolvulus (either concentration (0.29 or 0.5 milligrams)) is “Only a few of the cyanobacterin treated plants were dead”; in the series with Rumex crispus (0.5 milligrams) it was “half of the plants were dead, one-quarter were chlorotic and one-quarter were large, green and healthy like the control”; in the series with Rumex crispus (1.45 milligrams), “all were dead except for a few”. Also, the “electron flow from water to electron acceptors” value in the series on photosystem II was “inhibits electron flow”. Further, in the series with photosystem II (photosynthetically active pea chloroplasts), the Hill reaction entry is given as “inhibited”. In the series with photosystem II (photosynthetically active pea chloroplasts, in the presence of DCPIP), the “concentration that completely inhibits oxygen evolution” value was 110 nM. Further, the “plant condition on the 15th day” value in series [2] (0.6 to 1.5 milligrams per plant) was “all of the cyanobacterin treated plants were dead”. Besides, the hydrophobicity entry in the series “Hydrophobicity” is “very hydrophobic”. Also, the “plant condition by 30 days” value in series [3] (1.0 μg/ml or greater, purified cyanobacterin) is “most plants treated with 1.0 μg/ml or greater concentrations of purified cyanobacterin were dead”. In addition, in series [3] (at minimum dose 0.5 μg per ml), the “time until plants recovered” value was in the range of 7 to 12 days. In addition, the minimal effective concentration in series [3] (in growth medium, read-out: minimum dose that stopped frond multiplication) was 0.5 µg/mL and 1.1 µM. Also, the “plant condition by the fifteenth day” value in series [4] was “dead”. In [4], the “plant condition on the ninth day after treatment” value is given as “no new growth”. Besides, in “Application to the soil”, the “effect when applied to the soil” value is listed as “no effect”. The “amount effective as a herbicide relative to plant dry weight” value in [5] is listed as “one part of the cyanobacterin to 450 parts of the plant”.

These data come from patent US4626271A, “Cyanobacterin herbicide” (priority 1985, dated 1986).
